Data from patent US10544468B2, “Molecular markers and phenotypic screening for metribuzin tolerance” (Monsanto Technology LLC, priority 2012, dated 2020).

Test system: soybeans
Test: Field screening for metribuzin tolerance in soybeans (injury rating, 1-9 scale)
Assay type: in vivo, Glycine max
Conditions: soybean lines containing a heterozygous (CT) allele of NGMAX006079502
Protocol: A rating scale that evaluates the degree of metribuzin sensitivity can also be employed to identify “metribuzin sensitive” and “metribuzin tolerant” plants. An exemplary and non-limiting scale for evaluating the Metribuzin sensitivity phenotype is as follows, where a low number corresponds to a “metribuzin tolerance” phenotype and the a high number correlates to a “metribuzin sensitivity” phenotype: Field screening for metribuzin tolerance in soybeans was performed at the Monsanto Company Soybean Research Station near Mount Olive, N.C. in 2010 and 2011. Metribuzin application rate was 0.5 lbs/acre metribuzin (Sencor®, Bayer Crop Science, Research Triangle Park, N.C., USA) one day prior to planting. Rows were planted as single 6′ row plots with 9 seed per foot. Multiple repetitions were grown per row. Within 24 hours after planting, the trial was irrigated with 0.5″ of water to help incorporate and activate the herbicide. Injury ratings were taken fourteen to twenty one (14-21) days after planting using a 1-9 scale (for example, 1=no damage, 9=completely killed). After identifying the target region through the mapping population described in Example 2, a molecular marker was identified. An association study was done using a soybean molecular marker database. […]

Structure (SMILES): CSc1nnc(C(C)(C)C)c(=O)n1N [Metribuzin, 4-Amino-6-(1,1-dimethylethyl)-3-(methylthio)-1,2,4-triazin-5(4H)-one]
- metribuzin phenotype in the field: mixed phenotype of both tolerance and sensitivity
